Laboratory results from patent publication US9127044B2, “Cyclic depsipeptides” (NOVARTIS AG, priority 2007, dated 2015).

Target: T1, Human neutrophil elastase (Homo sapiens, UniProt P08246)
T1 construct: purchased Elastin Products Company, Inc. (EPC, Owensville, USA) SE563
T1 sequence (P08246 30-267): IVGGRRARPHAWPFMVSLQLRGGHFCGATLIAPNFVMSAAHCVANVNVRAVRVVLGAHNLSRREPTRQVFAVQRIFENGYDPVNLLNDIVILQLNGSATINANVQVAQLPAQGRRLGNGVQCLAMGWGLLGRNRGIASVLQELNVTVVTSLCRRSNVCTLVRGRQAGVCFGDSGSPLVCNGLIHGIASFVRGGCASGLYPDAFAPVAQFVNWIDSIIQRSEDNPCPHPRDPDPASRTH
Assay: HNE inhibitory activity in vitro (fluorescence-quenched substrate)
Assay type: biochemical

## CCC(C)[C@@H]1NC(=O)[C@H](Cc2ccc(O)cc2)N(C)C(=O)[C@H](C(C)CC)N2C(=O)C(CC[C@@H]2O)NC(=O)[C@H](CC(C)C)NC(=O)[C@@H](NC(=O)[C@H](CCC(N)=O)NC(=O)C(C)C)[C@@H](C)OC1=O (stereo partly shown) [formula II]
  IC50: 10 nM
